According to US20110152313A1 (MACQUARIE UNIVERSITY, priority 2008, published 2011):

Columns and labels:
Experiment in all cases: kinase binding constant, 11-point dose response (T7 phage, qPCR)
Conditions in all cases: >30 = no inhibition at highest concentration tested
CAMKK1 = CAMKK1 (Homo sapiens, UniProt Q8N5S9)
Procedure: (§1) Kinase inhibition studies were performed by methods well known in the prior art (Fabian, M. A. et al. Nat. Biotechnol. 2005, 23, 329). Briefly, kinase-tagged T7 phage strains were prepared in an E. coli host derived from the BL21 strain. E. coli were grown to log-phase and infected with T7 phage and incubated with shaking at 32° C. until lysis. The lysates were centrifuged and filtered to remove cell debris. […] The liganded beads were blocked with excess biotin and washed with blocking buffer (SeaBlock (Pierce); 1% BSA, 0.05% Tween 20, 1 mM DTT) to remove unbound ligand and to reduce non-specific binding. […] All reactions were performed in polystyrene 96-well plates in a final volume of 0.135 ml. […] The kinase concentration in the eluates was measured by qPCR.
(§2) An 11-point 3-fold serial dilution of each test compound (from 30 μM to 0.5 nM) was prepared in 100% DMSO at 100× final test concentration and subsequently diluted to 1× in the assay (final DMSO concentration=1%). Binding constants (KDS) were calculated with a standard dose-response curve using a 5-point sigmoidal (Hill) equation.

CDK7 = CDK7 (Homo sapiens, UniProt P50613)
Procedure: as §1, §2

YSK4 = target: T1, YSK4 (Homo sapiens, UniProt Q56UN5)
T1 sequence (Q56UN5 1-1328): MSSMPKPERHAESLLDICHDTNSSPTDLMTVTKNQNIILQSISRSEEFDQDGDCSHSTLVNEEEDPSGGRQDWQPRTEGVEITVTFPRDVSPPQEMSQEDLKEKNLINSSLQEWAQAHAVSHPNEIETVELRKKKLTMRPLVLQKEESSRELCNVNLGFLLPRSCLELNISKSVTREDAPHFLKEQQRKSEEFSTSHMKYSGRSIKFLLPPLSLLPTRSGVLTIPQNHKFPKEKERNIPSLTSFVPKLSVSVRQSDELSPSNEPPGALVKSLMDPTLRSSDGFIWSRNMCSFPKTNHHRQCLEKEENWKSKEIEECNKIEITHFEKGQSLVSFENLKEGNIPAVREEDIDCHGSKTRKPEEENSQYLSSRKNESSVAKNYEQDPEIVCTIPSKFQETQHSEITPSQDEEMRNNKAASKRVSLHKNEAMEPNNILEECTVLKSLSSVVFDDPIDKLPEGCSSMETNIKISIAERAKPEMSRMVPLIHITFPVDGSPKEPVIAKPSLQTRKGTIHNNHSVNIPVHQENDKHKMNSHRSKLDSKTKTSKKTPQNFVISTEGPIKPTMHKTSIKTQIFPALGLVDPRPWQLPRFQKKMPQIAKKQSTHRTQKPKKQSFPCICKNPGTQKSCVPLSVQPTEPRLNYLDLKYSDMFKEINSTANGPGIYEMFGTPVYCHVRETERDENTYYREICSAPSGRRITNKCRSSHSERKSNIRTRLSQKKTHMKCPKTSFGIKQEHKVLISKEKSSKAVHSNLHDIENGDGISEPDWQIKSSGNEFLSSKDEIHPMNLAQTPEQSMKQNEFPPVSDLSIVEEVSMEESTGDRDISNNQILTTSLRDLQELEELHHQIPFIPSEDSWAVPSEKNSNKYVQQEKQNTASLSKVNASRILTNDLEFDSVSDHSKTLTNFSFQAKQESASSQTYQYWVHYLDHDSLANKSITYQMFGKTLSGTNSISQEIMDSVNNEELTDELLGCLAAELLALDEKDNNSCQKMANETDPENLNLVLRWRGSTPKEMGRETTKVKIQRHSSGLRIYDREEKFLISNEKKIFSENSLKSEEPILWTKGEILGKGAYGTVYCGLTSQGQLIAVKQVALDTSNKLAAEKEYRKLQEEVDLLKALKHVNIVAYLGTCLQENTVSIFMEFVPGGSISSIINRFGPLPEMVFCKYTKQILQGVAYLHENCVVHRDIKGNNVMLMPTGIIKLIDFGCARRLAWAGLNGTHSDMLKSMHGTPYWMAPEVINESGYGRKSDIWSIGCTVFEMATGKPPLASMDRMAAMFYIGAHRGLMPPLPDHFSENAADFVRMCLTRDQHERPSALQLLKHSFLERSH
Procedure: as §1, §2

BMPR1B = BMPR1B (Homo sapiens, UniProt O00238)
Procedure: as §1, §2

CLK2 = CLK2 (Homo sapiens, UniProt P49760)
Procedure: as §1, §2

IRAK3 = target: T2, IRAK3 (Homo sapiens, UniProt Q9Y616)
T2 sequence (Q9Y616 1-596): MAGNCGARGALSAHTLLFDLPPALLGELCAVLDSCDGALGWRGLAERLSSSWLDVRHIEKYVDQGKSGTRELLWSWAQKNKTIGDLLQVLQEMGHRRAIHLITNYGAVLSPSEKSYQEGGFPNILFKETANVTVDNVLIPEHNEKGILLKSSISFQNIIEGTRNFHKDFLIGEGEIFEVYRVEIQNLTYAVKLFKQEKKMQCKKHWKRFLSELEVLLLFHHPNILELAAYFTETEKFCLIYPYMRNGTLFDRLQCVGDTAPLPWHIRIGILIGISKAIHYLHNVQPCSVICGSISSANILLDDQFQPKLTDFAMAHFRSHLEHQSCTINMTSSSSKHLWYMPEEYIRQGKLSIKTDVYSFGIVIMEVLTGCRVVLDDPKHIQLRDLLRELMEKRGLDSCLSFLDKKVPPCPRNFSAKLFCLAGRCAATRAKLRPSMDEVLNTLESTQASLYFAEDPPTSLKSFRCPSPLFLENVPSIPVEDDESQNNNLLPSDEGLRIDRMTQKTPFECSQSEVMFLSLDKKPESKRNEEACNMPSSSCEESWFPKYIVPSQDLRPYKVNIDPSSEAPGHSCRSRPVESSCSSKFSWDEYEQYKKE
Procedure: as §1, §2

BMPR1B, sequence (O00238 14-502): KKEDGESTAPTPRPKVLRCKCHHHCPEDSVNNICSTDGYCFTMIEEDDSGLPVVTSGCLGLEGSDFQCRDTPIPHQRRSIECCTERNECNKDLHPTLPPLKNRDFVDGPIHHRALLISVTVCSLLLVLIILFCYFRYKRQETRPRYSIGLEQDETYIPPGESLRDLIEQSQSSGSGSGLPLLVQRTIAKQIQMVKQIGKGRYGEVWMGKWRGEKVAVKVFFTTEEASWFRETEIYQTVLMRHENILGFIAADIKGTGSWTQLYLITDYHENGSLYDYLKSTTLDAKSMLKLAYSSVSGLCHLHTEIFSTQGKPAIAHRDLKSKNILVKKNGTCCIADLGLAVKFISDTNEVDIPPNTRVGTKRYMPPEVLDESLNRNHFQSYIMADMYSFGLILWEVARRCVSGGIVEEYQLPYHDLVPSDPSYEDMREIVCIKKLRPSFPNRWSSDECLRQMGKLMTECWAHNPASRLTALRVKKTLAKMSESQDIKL
CDK7, sequence (P50613 whole entry): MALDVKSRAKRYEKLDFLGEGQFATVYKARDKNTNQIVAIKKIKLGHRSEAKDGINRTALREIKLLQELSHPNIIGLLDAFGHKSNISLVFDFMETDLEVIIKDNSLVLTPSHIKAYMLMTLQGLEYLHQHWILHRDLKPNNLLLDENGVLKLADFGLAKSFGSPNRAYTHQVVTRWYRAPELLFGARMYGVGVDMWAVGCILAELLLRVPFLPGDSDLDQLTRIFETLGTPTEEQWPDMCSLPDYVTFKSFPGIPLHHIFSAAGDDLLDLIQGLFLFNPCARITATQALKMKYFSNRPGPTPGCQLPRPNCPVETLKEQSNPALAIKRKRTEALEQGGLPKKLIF
CLK2, sequence (P49760 whole entry): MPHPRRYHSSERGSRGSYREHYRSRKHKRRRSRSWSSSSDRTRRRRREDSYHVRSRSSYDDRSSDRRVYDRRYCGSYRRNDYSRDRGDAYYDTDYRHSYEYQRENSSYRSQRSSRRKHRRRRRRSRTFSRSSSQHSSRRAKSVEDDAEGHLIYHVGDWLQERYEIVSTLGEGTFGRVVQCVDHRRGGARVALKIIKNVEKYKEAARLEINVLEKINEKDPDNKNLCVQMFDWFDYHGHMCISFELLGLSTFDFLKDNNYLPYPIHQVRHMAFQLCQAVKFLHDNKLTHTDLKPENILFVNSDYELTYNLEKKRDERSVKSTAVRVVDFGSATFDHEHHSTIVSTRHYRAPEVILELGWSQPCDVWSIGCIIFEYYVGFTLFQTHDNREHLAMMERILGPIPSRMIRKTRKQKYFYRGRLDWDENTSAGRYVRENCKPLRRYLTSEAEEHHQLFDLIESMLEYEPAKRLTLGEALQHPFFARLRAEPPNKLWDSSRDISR
CAMKK1, sequence (Q8N5S9 whole entry): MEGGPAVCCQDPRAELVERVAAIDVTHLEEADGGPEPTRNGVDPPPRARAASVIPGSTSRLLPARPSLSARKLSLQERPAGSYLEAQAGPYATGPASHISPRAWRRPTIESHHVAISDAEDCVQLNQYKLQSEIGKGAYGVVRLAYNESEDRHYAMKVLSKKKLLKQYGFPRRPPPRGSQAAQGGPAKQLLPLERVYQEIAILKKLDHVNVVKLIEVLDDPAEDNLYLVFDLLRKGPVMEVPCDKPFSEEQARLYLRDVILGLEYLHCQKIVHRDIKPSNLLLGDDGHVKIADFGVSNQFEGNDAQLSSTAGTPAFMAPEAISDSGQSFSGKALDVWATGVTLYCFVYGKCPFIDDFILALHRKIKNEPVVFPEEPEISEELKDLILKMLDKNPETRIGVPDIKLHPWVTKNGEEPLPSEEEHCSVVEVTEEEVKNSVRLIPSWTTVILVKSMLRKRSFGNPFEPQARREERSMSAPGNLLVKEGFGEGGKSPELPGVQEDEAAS

SMILES	Kd (CAMKK1) [µM]	Kd (CDK7) [µM]	Kd (YSK4) [µM]	Kd (BMPR1B) [µM]	Kd (CLK2) [µM]	Kd (IRAK3) [µM]
Nc1nc2c(-c3ccccn3)nccc2[nH]1 [drawing 35, 4-(pyrid-2-yl)-1H-imidazo[4,5-c]pyridin-2-amine]	> 30	7.5	0.22			
Nc1nc2c(-c3cnc4ccccc4c3)nccc2[nH]1 [drawing 36, 4-(quinolin-3-yl)-1H-imidazo[4,5-c]pyridin-2-amine]				7.2	1.2	8.9
